# Measurements reported in patent US8138189B2, “Substituted benzene compounds as modulators of the glucocorticoid receptor” (Hoffman-La Roche Inc., priority 2009, dated 2012).
# Target: T1, full length human recombinant glucocorticoid receptor (Homo sapiens, UniProt P04150)
# T1 construct: partially purified full length human recombinant glucocorticoid receptor; purchased Panvera/Invitrogen PV4302
# T1 sequence (P04150 1-777): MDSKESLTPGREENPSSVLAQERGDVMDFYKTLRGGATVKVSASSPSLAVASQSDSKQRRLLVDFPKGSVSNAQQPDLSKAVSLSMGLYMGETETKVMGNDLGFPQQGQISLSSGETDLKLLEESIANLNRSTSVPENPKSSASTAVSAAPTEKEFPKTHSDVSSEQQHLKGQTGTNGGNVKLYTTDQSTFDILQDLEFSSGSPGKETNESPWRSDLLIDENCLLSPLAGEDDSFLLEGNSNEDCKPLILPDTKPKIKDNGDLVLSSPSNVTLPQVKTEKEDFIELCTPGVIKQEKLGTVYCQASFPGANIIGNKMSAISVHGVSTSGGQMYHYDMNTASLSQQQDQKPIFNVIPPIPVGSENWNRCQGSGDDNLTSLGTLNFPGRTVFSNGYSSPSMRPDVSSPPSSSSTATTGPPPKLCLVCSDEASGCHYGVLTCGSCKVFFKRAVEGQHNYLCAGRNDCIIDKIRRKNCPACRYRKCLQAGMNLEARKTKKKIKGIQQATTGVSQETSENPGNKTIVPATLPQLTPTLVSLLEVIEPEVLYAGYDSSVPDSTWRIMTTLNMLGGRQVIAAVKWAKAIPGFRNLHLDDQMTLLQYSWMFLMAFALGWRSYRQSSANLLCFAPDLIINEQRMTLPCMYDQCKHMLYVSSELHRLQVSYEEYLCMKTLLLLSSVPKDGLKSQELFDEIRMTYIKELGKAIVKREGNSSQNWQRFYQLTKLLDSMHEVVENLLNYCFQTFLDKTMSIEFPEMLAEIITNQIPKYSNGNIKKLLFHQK
# Experiment: Glucocorticoid Receptor Binding Assay (fluorescence polarization competitor assay, Fluormone GS Far Red tracer)
# How it was run: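 Partially purified full-length recombinant human GR with a stabilizing coactivator peptide was incubated with Fluormone GS Far Red tracer and serially diluted compound for 3 h at 22 °C in the dark, pH 7.4. Fluorescence polarization was read at 610-660 nm. IC50 came from sigmoidal fitting, and Ki from Cheng-Prusoff.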
row,Ki [nM],Compound
1,242,"C[C@H](c1ccc(-c2ccc(C(=O)O)cc2)cc1Cl)[C@@](O)(c1ccnc(-c2ccc(C(=O)O)cc2)c1)C(F)(F)F (stereo in doubt) [Example 57, 4′-{2-[2-(4-Carboxy-phenyl)-pyridin-4-yl]-3,3,3-trifluoro-2-hydroxy-1-methyl-propyl}-3′-chloro-biphenyl-4-carboxylic acid]"
2,5.8,"COc1cc(C(=O)O)ccc1Oc1ccc([C@@H](C)[C@@](O)(c2ccnc(Cl)c2)C(F)(F)F)c(Cl)c1 (stereo in doubt) [Example 92, 4-{3-Chloro-4-[2-(2-chloro-pyridin-4-yl)-3,3,3-trifluoro-2-hydroxy-1-methyl-propyl]-phenoxy}-3-methoxy-benzoic acid]"
3,68.3,"Cc1cc([C@](O)([C@H](C)c2ccc(OCc3cnn(CC(=O)O)c3)cc2Cl)C(F)(F)F)ccn1 (stereo in doubt) [Example 103, (4-{3-Chloro-4-[3,3,3-trifluoro-2-hydroxy-1-methyl-2-(2-methyl-pyridin-4-yl)-propyl]-phenoxymethyl}-pyrazol-1-yl)-acetic acid]"
4,9.7,"COC(=O)c1cnc(OCc2ccc([C@@H](C)[C@@](O)(c3ccnc(Cl)c3)C(F)(F)F)c(Cl)c2)cn1 (stereo in doubt) [Example 120, 5-{3-Chloro-4-[2-(2-chloro-pyridin-4-yl)-3,3,3-trifluoro-2-hydroxy-1-methyl-propyl]-benzyloxy}-pyrazine-2-carboxylic acid methyl ester]"
5,18.8,"C[C@H](c1ccc(COc2cnc(C(=O)O)cn2)cc1Cl)[C@@](O)(c1ccnc(Cl)c1)C(F)(F)F (stereo in doubt) [Example 121, 5-{3-Chloro-4-[2-(2-chloro-pyridin-4-yl)-3,3,3-trifluoro-2-hydroxy-1-methyl-propyl]-benzyloxy}-pyrazine-2-carboxylic acid]"
6,10.7,"COC(=O)c1ccc(OCc2ccc([C@@H](C)[C@@](O)(c3ccnc(Cl)c3)C(F)(F)F)c(Cl)c2)nn1 (stereo in doubt) [Example 122, 6-{3-Chloro-4-[2-(2-chloro-pyridin-4-yl)-3,3,3-trifluoro-2-hydroxy-1-methyl-propyl]-benzyloxy}-pyridazine-3-carboxylic acid methyl ester]"
7,34.3,"C[C@H](c1ccc(COc2ccc(C(=O)O)nn2)cc1Cl)[C@@](O)(c1ccnc(Cl)c1)C(F)(F)F (stereo in doubt) [Example 123, 6-{3-Chloro-4-[2-(2-chloro-pyridin-4-yl)-3,3,3-trifluoro-2-hydroxy-1-methyl-propyl]-benzyloxy}-pyridazine-3-carboxylic acid]"
8,8.8,"COC(=O)c1cnc(OCc2ccc([C@@H](C)[C@@](O)(c3ccnc(Cl)c3)C(F)(F)F)c(Cl)c2)nc1 (stereo in doubt) [Example 124, 2-{3-Chloro-4-[2-(2-chloro-pyridin-4-yl)-3,3,3-trifluoro-2-hydroxy-1-methyl-propyl]-benzyloxy}-pyrimidine-5-carboxylic acid methyl ester]"
9,24.7,"C[C@H](c1ccc(COc2ncc(C(=O)O)cn2)cc1Cl)[C@@](O)(c1ccnc(Cl)c1)C(F)(F)F (stereo in doubt) [Example 125, 2-{3-Chloro-4-[2-(2-chloro-pyridin-4-yl)-3,3,3-trifluoro-2-hydroxy-1-methyl-propyl]-benzyloxy}-pyrimidine-5-carboxylic acid]"
10,8.5,"COC(=O)c1ccc(OCc2ccc([C@@H](C)[C@@](O)(c3ccnc(Cl)c3)C(F)(F)F)c(Cl)c2)nc1 (stereo in doubt) [Example 126, 6-{3-Chloro-4-[2-(2-chloro-pyridin-4-yl)-3,3,3-trifluoro-2-hydroxy-1-methyl-propyl]-benzyloxy}-nicotinic acid methyl ester]"
11,1580,"C[C@H](c1cc(Oc2cnc(C(=O)O)cn2)ccc1Cl)[C@@](O)(c1ccnc(Cl)c1)C(F)(F)F (stereo in doubt) [Example 137, 5-{4-Chloro-3-[2-(2-chloro-pyridin-4-yl)-3,3,3-trifluoro-2-hydroxy-1-methyl-propyl]-phenoxy}-pyrazine-2-carboxylic acid]"
12,404,"C[C@H](c1cc(Oc2ccc(C(=O)O)nn2)ccc1Cl)[C@@](O)(c1ccnc(Cl)c1)C(F)(F)F (stereo in doubt) [Example 139, 6-{4-Chloro-3-[2-(2-chloro-pyridin-4-yl)-3,3,3-trifluoro-2-hydroxy-1-methyl-propyl]-phenoxy}-pyridazine-3-carboxylic acid]"
13,1.5,"C[C@@H](c1ccc(OCc2ccc(C(=O)O)cc2)cc1Cl)[C@](O)(c1cnc2ccccc2c1)C(F)(F)F (stereo in doubt) [Example 141, 4-[3-Chloro-4-(3,3,3-trifluoro-2-hydroxy-1-methyl-2-quinolin-3-yl-propyl)-phenoxymethyl]-benzoic acid]"
14,6.6,"COC(=O)C1(c2ccc(COc3ccc([C@H](C)[C@](O)(c4cnc5ccccc5c4)C(F)(F)F)c(Cl)c3)cc2)CC1 (stereo in doubt) [Example 142, 1-{4-[3-Chloro-4-(3,3,3-trifluoro-2-hydroxy-1-methyl-2-quinolin-3-yl-propyl)-phenoxymethyl]-phenyl}-cyclopropanecarboxylic acid methyl ester]"
15,4.6,"C[C@@H](c1ccc(OCc2ccc(C3(C(=O)O)CC3)cc2)cc1Cl)[C@](O)(c1cnc2ccccc2c1)C(F)(F)F (stereo in doubt) [Example 143, 1-{4-[3-Chloro-4-(3,3,3-trifluoro-2-hydroxy-1-methyl-2-quinolin-3-yl-propyl)-phenoxymethyl]-phenyl}-cyclopropanecarboxylic acid]"
16,3.6,"COC(=O)Cc1ccc(COc2ccc([C@H](C)[C@](O)(c3cnc4ccccc4c3)C(F)(F)F)c(Cl)c2)cc1 (stereo in doubt) [Example 144, {4-[3-Chloro-4-(3,3,3-trifluoro-2-hydroxy-1-methyl-2-quinolin-3-yl-propyl)-phenoxymethyl]-phenyl}-acetic acid methyl ester]"
17,1.3,"C[C@@H](c1ccc(OCc2ccc(C(=O)O)cc2)cc1Cl)[C@](O)(c1cccc2cnccc12)C(F)(F)F (stereo in doubt) [Example 148, 4-[3-Chloro-4-(3,3,3-trifluoro-2-hydroxy-2-isoquinolin-5-yl-1-methyl-propyl)-phenoxymethyl]-benzoic acid]"
18,1.8,"C[C@@H](c1ccc(OCc2ccc(CC(=O)O)cc2)cc1Cl)[C@](O)(c1cccc2cnccc12)C(F)(F)F (stereo in doubt) [Example 149, {4-[3-Chloro-4-(3,3,3-trifluoro-2-hydroxy-2-isoquinolin-5-yl-1-methyl-propyl)-phenoxymethyl]-phenyl}-acetic acid]"
19,9.5,"C[C@@H](c1ccc(-c2ccc(C(=O)O)c(F)c2)cc1Cl)[C@](O)(c1cccc2cnccc12)C(F)(F)F (stereo in doubt) [Example 150, 3′-Chloro-3-fluoro-4′-(3,3,3-trifluoro-2-hydroxy-2-isoquinolin-5-yl-1-methyl-propyl)-biphenyl-4-carboxylic acid]"
20,3.3,"C[C@H](c1ccc(Oc2ccc(C(=O)O)cc2)cc1Cl)[C@@](O)(c1ccc(=O)n(C)c1)C(F)(F)F (stereo in doubt) [Example 152, 4-{3-Chloro-4-[3,3,3-trifluoro-2-hydroxy-1-methyl-2-(1-methyl-6-oxo-1,6-dihydro-pyridin-3-yl)-propyl]-phenoxy}-benzoic acid]"
21,4.9,"COC(=O)c1ccc(Oc2ccc([C@@H](C)[C@@](O)(c3ccc(=O)n(C)c3)C(F)(F)F)c(Cl)c2)cc1Cl (stereo in doubt) [Example 153, 2-Chloro-4-{3-chloro-4-[3,3,3-trifluoro-2-hydroxy-1-methyl-2-(1-methyl-6-oxo-1,6-dihydro-pyridin-3-yl)-propyl]-phenoxy}-benzoic acid methyl ester]"
22,6.3,"C[C@H](c1ccc(Oc2ccc(C(=O)O)c(Cl)c2)cc1Cl)[C@@](O)(c1ccc(=O)n(C)c1)C(F)(F)F (stereo in doubt) [Example 154, 2-Chloro-4-{3-chloro-4-[3,3,3-trifluoro-2-hydroxy-1-methyl-2-(1-methyl-6-oxo-1,6-dihydro-pyridin-3-yl)-propyl]-phenoxy}-benzoic acid]"
23,46.2,"C[C@H](c1ccc(Oc2ccc(C(=O)O)c(F)c2)cc1Cl)[C@@](O)(c1ccc(=O)n(C)c1)C(F)(F)F (stereo in doubt) [Example 155, 4-{3-Chloro-4-[3,3,3-trifluoro-2-hydroxy-1-methyl-2-(1-methyl-6-oxo-1,6-dihydro-pyridin-3-yl)-propyl]-phenoxy}-2-fluoro-benzoic acid]"
24,7.1,"C[C@H](c1ccc(Oc2ccc(CC(=O)O)cc2)cc1Cl)[C@@](O)(c1ccc(=O)n(C)c1)C(F)(F)F (stereo in doubt) [Example 158, (4-{3-Chloro-4-[3,3,3-trifluoro-2-hydroxy-1-methyl-2-(1-methyl-6-oxo-1,6-dihydro-pyridin-3-yl)-propyl]-phenoxy}-phenyl)-acetic acid]"
